Source: patent EP0305968A2, “Compositions against protozoal diseases” (YEDA RESEARCH AND DEVELOPMENT COMPANY LIMITED, priority 1987, dated 1989)
In brackets after ≈: the same amount, converted by molar mass.

System: Entamoeba histolytica
Assay: Killing of Entamoeba histolytica trophozoites in culture, with particle ingestion
Format: cell-based
Settings: drug alone
Excerpt: The particles were diol subsituted silica or aluminum- silicate particles Fig. 1), in which aldehyde groups can be formed by pretreatment with periodate that oxidizes vicinal hydroxyl groups and yields aldehyde groups. […] Schiff base was then interacted with sodium bisulfite to stabilize the bond (Fig. 2). […] One mg of dry weight silica particles contains 10⁷-10⁹ particles depending on the source.

Cc1ncc([N+](=O)[O-])n1CCO [Metronidazole]
EC95 (Entamoeba histolytica, over 24 h, read-out: concentration required to kill more than 95% of the trophozoites): 1 to 5 µg/mL (≈ 5.84 to 29.2 µM) | time required to kill more than 95% of the trophozoites (1-5 µg/ml): over 24 h
